One may read the IC50 as the concentration needed to halve the response being measured.

One test deals with phospho-serine 2056 DNA-PK in HCT116 cells. Nature of the test: DNA-PK phosphorylation at serine 2056 (cellular), ELISA in bleomycin-treated HCT116 cells. In kind it is cell-based. The conditions noted are these: Homo sapiens, HCT-116, 6 h, cellular; HCT116 cells, 10 μM bleomycin, six hours; read-out: IC50 pDNA-PK. An outline of the steps:
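HCT116 cells were treated with 10 μM bleomycin plus test compounds for six hours at 37 °C. Phospho-Ser2056 DNA-PK measured by chemiluminescent ELISA, normalised to total DNA-PKcs signal; DMSO control as blank.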
In general terms: An ELISA detects its analyte on a solid surface through an enzyme-linked reagent.
Regarding `OC(c1ccc(F)c(-c2ncnc3cc(N4CCOCC4)ccc23)c1)c1c(F)cncc1F` (stereo not drawn) [Example 1, (3,5-Difluoropyridin-4-yl)-[4-fluoro-3-(7-morpholin-4-ylquinazolin-4-yl)phenyl]methanol], the IC50 was in the range of 0.5 to 5 µM.
Same read-out and setting: next, `COc1cnc(C(O)c2ccc(F)c(-c3ncnc4cc(N5CCOCC5)ccc34)c2)nc1` (stereo not drawn) [Example 66, [4-Fluoro-3-(7-morpholin-4-yl-quinazolin-4-yl)phenyl]-(5-methoxypyrimidin-2-yl)methanol]: 10 to 30 µM; `COc1ccc(C(O)c2ccc(F)c(-c3ncnc4cc(N5CCOCC5)ccc34)c2)nn1` (stereo not drawn) [Example 74, [4-Fluoro-3-(7-morpholin-4-yl-quinazolin-4-yl)phenyl]-(6-methoxypyridazin-3-yl)methanol]: less than 0.5 µM.
The same measure, in the same setting: with `O=c1ccc(C(O)c2cc(-c3ncnc4cc(N5CCOCC5)ccc34)c(F)cc2Cl)nn1C1CC1` (stereo not drawn) [Example 95, 6-{[2-Chloro-4-fluoro-5-(7-morpholin-4-yl-quinazolin-4-yl)phenyl]-hydroxymethyl}-2-cyclopropyl-2H-pyridazin-3-one] the figure was 0.5 to 5 µM; with `OC(c1ccc(F)c(-c2ncnc3cc(N4CCOCC4)ccc23)c1)c1nc(Cl)cnc1Cl` (stereo not drawn) [Example 35, (3,6-Dichloro-pyrazin-2-yl)-[4-fluoro-3-(7-morpholin-4-yl-quinazolin-4-yl)phenyl]-methanol], less than 0.5 µM.
With `COc1nnc(C(O)c2cc(-c3ncnc4cc(N5CCOCC5)ccc34)c(F)cc2Cl)c2ccncc12` (stereo not drawn) [Example 40, [2-Chloro-4-fluoro-5-(7-morpholin-4-yl-quinazolin-4-yl)phenyl]-(4-methoxypyrido-[3,4-d}pyridazin-1-yl)-methanol], the IC50 fell in the range of 0.5 to 5 µM.

Still in this test, the particulars now being: Homo sapiens, HCT-116, cellular DNA-PK phosphorylation at serine 2056, HCT116 cells; read-out: IC50 pDNA-PK.
For `Cc1cncnc1C(O)c1cc(-c2ncnc3cc(N4CCOCC4)ccc23)ccc1F` (stereo not drawn) [Example 392, [2-Fluoro-5-(7-morpholin-4-yl-quinazolin-4-yl)-phenyl]-(5-methyl-pyrimidin-4-yl)-methanol], the IC50 lay in the range of 0.5 to 5 µM.
As for `OC(c1cc(-c2ncnc3cc(N4CCOCC4)ccc23)ccc1F)c1nccn2ccnc12` (stereo not drawn) [Example 372, [2-Fluoro-5-(7-morpholin-4-yl-quinazolin-4-yl)-phenyl]imidazo-[1,2-a]pyrazin-8-yl-methanol], the IC50 is 0.5 to 5 µM.
The same measure, in the same setting: next, `COc1nccnc1C(O)c1cc(-c2ncnc3cc(N4CCOCC4)ccc23)c(F)cc1F` (stereo not drawn) [Example 453]: less than 0.5 µM.

Still in this test, the particulars now being: Homo sapiens, HCT-116, phospho-serine 2056 DNA-PK, bleomycin-treated HCT116 cells; class symbols A-D; read-out: IC50 pDNA-PK.
With `OC(c1cccc(-c2ncnc3cc(N4CCOCC4)sc23)c1)c1nccs1` (stereo not drawn) [Example 182, [3-(6-Morpholin-4-ylthieno[3,2-d}-pyrimidin-4-yl)-phenyl]thiazol-2-yl-methanol], the IC50 lay in the range of 5 to 10 µM.
On the same count and under the same terms, next, `OCc1csc(C(O)c2cc(-c3ncnc4cc(N5CCOCC5)ncc34)c(F)cc2Cl)n1` (stereo not drawn) [Example 141, [2-Chloro-4-fluoro-5-(7-morpholin-4-yl-pyrido[4,3-d}-pyrimidin-4-yl)-phenyl]-(4-hydroxymethyl-thiazol-2-yl)-methanol]: 10 to 30 µM.
Still for that read-out and setting: with `OC(c1ccc2ncnn2c1)c1cc(-c2ncnc3cc(N4CCOCC4)ccc23)c(F)cc1F` (stereo not drawn) [Example 222, [2,4-Difluoro-5-(7-morpholin-4-yl-quinazolin-4-yl)-phenyl]-[1,2,4]-triazolo[1,5-a]pyridin-6-ylmethanol] the figure was 0.5 to 5 µM; with `COCCOc1ccc(C(O)c2cc(-c3ncnc4cc(N5CCOCC5)ccc34)c(F)cc2Cl)nn1` (stereo not drawn) [Example 112, [2-Chloro-4-fluoro-5-(7-morpholin-4-yl-quinazolin-4-yl)-phenyl]-[6-(2-methoxyethoxy)-pyridazin-3-yl]-methanol], 0.5 to 5 µM.
On the same count and under the same terms, with `Cn1cc(C(O)c2ccc(F)c(-c3ncnc4cc(N5CCOCC5)ccc34)c2)cn1` (stereo not drawn) [Example 191, [4-Fluoro-3-(7-morpholin-4-yl-quinazolin-4-yl)-phenyl]-(1-methyl-1H-pyrazol-4-yl)-methanol] the figure was 10 to 30 µM; with `COc1ccc(C(O)c2cc(-c3ncnc4cc(N5CCOCC5)ccc34)c(F)cc2F)nc1` (stereo not drawn) [Example 224, [2,4-Difluoro-5-(7-morpholin-4-yl-quinazolin-4-yl)-phenyl]-(5-methoxy-pyridin-2-yl)methanol], 0.5 to 5 µM; with `COc1ccc(C(O)(c2cc(-c3ncnc4cc(N5CCOCC5)ccc34)c(F)cc2Cl)C(F)F)nn1` (stereo not drawn) [Example 123, 1-[2-Chloro-4-fluoro-5-(7-morpholin-4-yl-quinazolin-4-yl)-phenyl]-2,2-difluoro-1-(6-methoxy-pyridazin-3-yl)-ethanol], 10 to 30 µM.
Consider `NC(=O)COc1ccc(C(O)c2cc(-c3ncnc4cc(N5CCOCC5)ccc34)c(F)cc2Cl)nn1` (stereo not drawn) [Example 111, 2-(6-{[2-Chloro-4-fluoro-5-(7-morpholin-4-yl-quinazolin-4-yl)-phenyl]hydroxy-methyl}pyridazin-3-yloxy)acetamide], for which the IC50 fell in the range of 5 to 10 µM.
On the same count and under the same terms, next, `COc1ccc(C(O)c2cc(-c3ncnc4cc(N5CCOCC5)ccc34)c(F)cc2Cl)nn1` (stereo not drawn) [Example 137, [2-Chloro-4-fluoro-5-(7-morpholin-4-ylquinazolin-4-yl)-phenyl]-(6-methoxy-pyridazin-3-yl)-methanol]: 0.5 to 5 µM; `OCc1csc([C@@H](O)c2cc(-c3ncnc4cc(N5CCOCC5)ccc34)c(F)cc2Cl)n1` [Example 185, (S)-[2-Chloro-4-fluoro-5-(7-morpholin-4-yl-quinazolin-4-yl)-phenyl]-(4-hydroxymethyl-thiazol-2-yl)-methanol]: 0.5 to 5 µM.

Staying with this test, now noted: Homo sapiens, HCT-116, phospho-serine 2056 DNA-PK, bleomycin-treated HCT116 cells; read-out: IC50 pDNA-PK.
Consider `NC(=O)C(c1cccnn1)c1cc(-c2ncnc3cc(N4CCOCC4)ccc23)c(F)cc1Cl` (stereo not drawn) [Example 300, 2-[2-Chloro-4-fluoro-5-(7-morpholin-4-yl-quinazolin-4-yl)-phenyl]-2-pyridazin-3-ylacetamide], for which the IC50 was 10 to 30 µM.
Same read-out and setting: next, `NC(=O)C(c1ccc(F)c(-c2ncnc3cc(N4CCOCC4)ccc23)c1)c1nnc(Cl)c2sccc12` (stereo not drawn) [Example 291, 2-(7-Chlorothieno-[2,3-d}pyridazin-4-yl)-2-[4-fluoro-3-(7-morpholin-4-yl-quinazolin-4-yl)-phenyl]acetamide]: 5 to 10 µM; `NC(=O)C(c1cccnc1)c1cc(-c2ncnc3cc(N4CCOCC4)ccc23)c(F)cc1Cl` (stereo not drawn) [Example 293, 2-[2-Chloro-4-fluoro-5-(7-morpholin-4-yl-quinazolin-4-yl)-phenyl]-2-pyridin-3-ylacetamide]: 5 to 10 µM; `Cn1c(C(C(N)=O)c2cc(-c3ncnc4cc(N5CCOCC5)ccc34)c(F)cc2Cl)cccc1=O` (stereo not drawn) [Example 312, 2-[2-Chloro-4-fluoro-5-(7-morpholin-4-yl-quinazolin-4-yl)-phenyl]-2-(1-methyl-6-oxo-1,6-dihydro-pyridin-2-yl)-acetamide]: 10 to 30 µM.
With `OC(c1ccc(F)c(-c2ncnc3cc(N4CCOCC4)ccc23)c1)c1nccn2cccc12` (stereo not drawn) [Example 356, [4-Fluoro-3-(7-morpholin-4-yl-quinazolin-4-yl)-phenyl]pyrrolo[1,2-a]-pyrazin-1-ylmethanol], the IC50 was less than 0.5 µM.
On the same count and under the same terms, next, `COc1ccc(C(C(N)=O)c2cc(-c3ncnc4cc(N5CCOCC5)ccc34)c(F)cc2F)nn1` (stereo not drawn) [Example 306, 2-[2,4-Difluoro-5-(7-morpholin-4-yl-quinazolin-4-yl)-phenyl]-2-(6-methoxy-pyridazin-3-yl)acetamide]: 10 to 30 µM; `Cc1nccnc1C(C(N)=O)c1cc(-c2ncnc3cc(N4CCOCC4)ccc23)c(F)cc1F` (stereo not drawn) [Example 329, 2-[2,4-Difluoro-5-(7-morpholin-4-yl-quinazolin-4-yl)-phenyl]-2-(3-methyl-pyrazin-2-yl)-acetamide]: 5 to 10 µM; `COc1nccnc1C(C(N)=O)c1cc(-c2ncnc3cc(N4CCOCC4)cc(F)c23)c(F)cc1Cl` (stereo not drawn) [Example 261, 2-[2-Chloro-4-fluoro-5-(5-fluoro-7-morpholin-4-yl-quinazolin-4-yl)-phenyl]-2-(3-methoxy-pyrazin-2-yl)acetamide]: 0.5 to 5 µM.
Still for that read-out and setting: with `OC(c1cc(-c2ncnc3cc(N4CCOCC4)ccc23)ccc1Cl)c1nccn2cccc12` (stereo not drawn) [Example 361, [2-Chloro-5-(7-morpholin-4-yl-quinazolin-4-yl)-phenyl]pyrrolo[1,2-a]-pyrazin-1-ylmethanol] the figure was 0.5 to 5 µM; with `NC(=O)C(c1ccc(F)c(-c2ncnc3cc(N4CCOCC4)ccc23)c1)c1nncc2sccc12` (stereo not drawn) [Example 285, 2-[4-Fluoro-3-(7-morpholin-4-yl-quinazolin-4-yl)-phenyl]-2-thieno-[2,3-d}pyridazin-4-yl-acetamide], 10 to 30 µM.

The same test, now with this note: cellular DNA-PK phosphorylation at serine 2056, HCT116 cells; read-out: IC50 pDNA-PK.
Regarding `OC(c1cc(-c2ncnc3cc(N4CCOCC4)ccc23)c(F)cc1Cl)c1nccn2ccnc12` (stereo not drawn) [Example 397, [2-Chloro-4-fluoro-5-(7-morpholin-4-yl-quinazolin-4-yl)-phenyl]imidazo-[1,2-a]pyrazin-8-yl-methanol], the IC50 was less than 0.5 µM.
As to `Cc1cccnc1C(O)c1ccc(F)c(-c2ncnc3cc(N4CCOCC4)ccc23)c1` (stereo not drawn) [Example 472, [4-Fluoro-3-(7-morpholin-4-yl-quinazolin-4-yl)-phenyl]-(3-methyl-pyridin-2-yl)methanol], the IC50 was less than 0.5 µM.

The same test, now with this note: cellular; HCT116 cells, 10 μM bleomycin, six hours; read-out: IC50 pDNA-PK.
As to `Cc1nccnc1C(O)c1cc(-c2ncnc3cc(N4CCOCC4)ccc23)c(F)cc1F` (stereo not drawn) [Example 86, [2,4-Difluoro-5-(7-morpholin-4-yl-quinazolin-4-yl)-phenyl]-(3-methyl-pyrazin-2-yl)methanol], the IC50 is less than 0.5 µM.

The test is the same for the next values; noted with them: phospho-serine 2056 DNA-PK, bleomycin-treated HCT116 cells; read-out: IC50 pDNA-PK.
As for `COc1ccc(C(C(N)=O)c2cc(-c3ncnc4cc(N5CCOCC5)ccc34)c(F)cc2Cl)nn1` (stereo not drawn) [Example 325, 2-[2-Chloro-4-fluoro-5-(7-morpholin-4-yl-quinazolin-4-yl)-phenyl]-2-(6-methoxypyridazin-3-yl)acetamide], the IC50 lay within 10 to 30 µM.

Source of the values: patent US11065253B2, “Arylquinazolines” (Merck Patent GmbH, priority 2013, dated 2021).
